Patent US20160046618A1, “Cyclopropyl Fused Thiazin-2-Amine Compounds as Beta-Secretase Inhibitors and Methods of Use” (AMGEN INC., priority 2014, published 2016)

What was measured:
human recombinant BACE1 = human recombinant BACE1 (Homo sapiens (Human), UniProt P56817); assay: In vitro enzymatic BACE1 FRET assay; assay type: biochemical; details: read-out: IC50 IP (μM) BACE1 enzyme
Outline: (§1)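 Ni-NTA-purified recombinant enzyme incubated 1 h with 50 nM FRET peptide substrate (fluorophore and quencher flanking the BACE cleavage site). Reaction stopped with Tris buffer raising pH to neutrality; cleavage-released fluorescence read at ex 488/em 590 nm.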

Recombinant Cat D = Recombinant Cat D (Homo sapiens (Human), UniProt P07339); assay: In vitro enzymatic Cathepsin D (Cat D) FRET assay; assay type: biochemical; details: read-out: IC50 IP (μM) CatD
Outline: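 Human Cat D expressed in CHO cells was incubated for one hour in 0.05 M citrate pH 3.5, 5 mM CHAPS, 10% DMSO final, with 20 nM quenched FRET peptide substrate. Reactions were stopped with Tris buffer raising pH to neutrality. Cleavage was read as fluorescence at excitation 500 nm, emission 580 nm.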

human recombinant BACE2 = human recombinant BACE2 (Homo sapiens (Human), UniProt Q9Y5Z0); assay: In vitro enzymatic BACE2 FRET assay; assay type: biochemical; details: read-out: IC50 IP (μM) BACE2 enzyme
Outline: as §1

[1] = tested on: Aβ40 in conditioned medium of cells stably expressing Amyloid Precursor Protein (APP); assay: In vitro BACE-1 cell-based assay (Aβ40 sandwich ELISA); details: read-out: IC50 IP (μM) BACE1 cell
Outline: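 APP-stable cells, pre-cultured 24 h at 37° C in DMEM/10% FBS, were treated 24 h with compound in a 10-point series starting at 100 μM or 10 μM (0.1% DMSO final). Secreted Aβ40 in conditioned medium was measured by pAb40/biotin-6E10 sandwich ELISA with Europium time-resolved fluorescence; IC50 from percent inhibition versus concentration.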

Sequence of human recombinant BACE1 (P56817 46-501): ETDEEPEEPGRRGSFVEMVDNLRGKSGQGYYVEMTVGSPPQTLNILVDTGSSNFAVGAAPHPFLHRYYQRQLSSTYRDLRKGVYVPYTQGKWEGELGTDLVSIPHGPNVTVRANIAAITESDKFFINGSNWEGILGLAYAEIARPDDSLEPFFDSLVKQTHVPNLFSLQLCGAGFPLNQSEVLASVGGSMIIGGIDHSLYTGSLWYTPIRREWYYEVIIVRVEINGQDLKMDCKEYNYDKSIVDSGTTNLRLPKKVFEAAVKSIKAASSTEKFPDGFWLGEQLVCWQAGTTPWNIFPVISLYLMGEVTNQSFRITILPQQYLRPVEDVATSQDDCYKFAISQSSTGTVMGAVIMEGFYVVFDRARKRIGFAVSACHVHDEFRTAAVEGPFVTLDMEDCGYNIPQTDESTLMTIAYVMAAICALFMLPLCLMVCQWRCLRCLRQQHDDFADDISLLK
Sequence of Recombinant Cat D (P07339 65-412): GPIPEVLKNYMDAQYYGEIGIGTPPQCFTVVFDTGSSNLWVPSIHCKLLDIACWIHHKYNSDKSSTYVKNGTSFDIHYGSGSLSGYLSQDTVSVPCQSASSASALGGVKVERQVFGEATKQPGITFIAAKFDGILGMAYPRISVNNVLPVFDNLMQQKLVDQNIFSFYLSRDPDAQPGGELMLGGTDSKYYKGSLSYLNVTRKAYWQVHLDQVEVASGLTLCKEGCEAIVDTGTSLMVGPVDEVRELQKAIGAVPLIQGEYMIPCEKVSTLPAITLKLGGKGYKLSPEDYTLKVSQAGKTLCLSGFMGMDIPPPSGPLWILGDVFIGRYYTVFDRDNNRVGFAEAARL
Sequence of human recombinant BACE2 (Q9Y5Z0 63-518): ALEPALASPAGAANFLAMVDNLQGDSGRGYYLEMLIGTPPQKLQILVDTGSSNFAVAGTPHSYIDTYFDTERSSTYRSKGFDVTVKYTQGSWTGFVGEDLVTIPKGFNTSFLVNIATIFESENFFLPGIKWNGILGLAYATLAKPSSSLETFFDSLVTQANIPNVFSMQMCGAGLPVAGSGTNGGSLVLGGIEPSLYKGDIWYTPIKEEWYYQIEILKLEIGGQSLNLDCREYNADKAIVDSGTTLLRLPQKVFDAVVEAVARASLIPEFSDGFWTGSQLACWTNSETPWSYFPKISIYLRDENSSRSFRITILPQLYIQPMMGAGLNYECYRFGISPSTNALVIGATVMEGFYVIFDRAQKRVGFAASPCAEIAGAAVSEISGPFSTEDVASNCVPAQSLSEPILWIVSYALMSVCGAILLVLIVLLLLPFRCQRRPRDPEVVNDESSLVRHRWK

IC50 (human recombinant BACE1) | IC50 (Recombinant Cat D) | IC50 (human recombinant BACE2) | IC50 [1] | SMILES
0.00022 µM | 116 µM | < 0.0061 µM | 0.00126 µM | C#CCOc1cnc(C(=O)Nc2ccc(F)c([C@@]3(CF)N=C(N)S[C@@]4(c5cnco5)C[C@@H]34)c2)cn1 [Example 780, N-(3-((1S,5S,6S)-3-amino-5-(fluoromethyl)-1-(1,3-oxazol-5-yl)-2-thia-4-azabicyclo[4.1.0]hept-3-en-5-yl)-4-fluorophenyl)-5-(2-propyn-1-yloxy)-2-pyrazinecarboxamide]
0.000501 µM | > 400 µM | 0.00245 µM | 0.00485 µM | NC1=N[C@](CF)(c2cc(NC(=O)c3cnc(OCc4ncco4)cn3)ccc2F)[C@@H]2C[C@]2(c2cnco2)S1 [Example 783, N-(3-((1S,5S,6S)-3-amino-5-(fluoromethyl)-1-(1,3-oxazol-5-yl)-2-thia-4-azabicyclo[4.1.0]hept-3-en-5-yl)-4-fluorophenyl)-5-(1,3-oxazol-2-ylmethoxy)-2-pyrazinecarboxamide]
0.000847 µM | 1230 µM | < 0.00203 µM | 0.0139 µM | Cc1ncoc1[C@]12C[C@H]1[C@@](CF)(c1cc(NC(=O)c3ccc(Cl)cn3)ccc1F)N=C(N)S2 [Example 787, N-(3-((1S,5S,6S)-3-amino-5-(fluoromethyl)-1-(4-methyl-1,3-oxazol-5-yl)-2-thia-4-azabicyclo[4.1.0]hept-3-en-5-yl)-4-fluorophenyl)-5-chloro-2-pyridinecarboxamide]
0.000528 µM | 835 µM | 0.00936 µM | 0.0259 µM | C#CCOc1ccc(C(=O)Nc2ccc(F)c([C@@]3(CF)N=C(N)S[C@@]4(c5ocnc5C)C[C@@H]34)c2)nc1 [Example 789, N-(3-((1S,5S,6S)-3-amino-5-(fluoromethyl)-1-(4-methyl-1,3-oxazol-5-yl)-2-thia-4-azabicyclo[4.1.0]hept-3-en-5-yl)-4-fluorophenyl)-5-(2-propyn-1-yloxy)-2-pyridinecarboxamide]
0.000338 µM | 792 µM | < 0.00203 µM | 0.0028 µM | CN(C)C(=O)[C@]12C[C@H]1[C@@](CF)(c1cc(NC(=O)c3ccc(Cl)cn3)ccc1F)N=C(N)S2 [Example 790, (1S,5S,6S)-3-amino-5-(5-(((5-chloro-2-pyridinyl)carbonyl)amino)-2-fluorophenyl)-5-(fluoromethyl)-N,N-dimethyl-2-thia-4-azabicyclo[4.1.0]hept-3-ene-1-carboxamide]
0.000658 µM | 317 µM | 0.0712 µM | 0.00183 µM | C#CCOc1cnc2c(Nc3ccc(F)c([C@@]4(C)N=C(N)S[C@@]5(C(=O)NC6CC6)C[C@H]54)c3)ncnc2c1 [Example 791, (1S,5S,6S)-3-amino-N-cyclopropyl-5-(2-fluoro-5-((7-(2-propyn-1-yloxy)pyrido[3,2-d]pyrimidin-4-yl)amino)phenyl)-5-methyl-2-thia-4-azabicyclo[4.1.0]hept-3-ene-1-carboxamide]
0.00075 µM | 134 µM | < 0.00203 µM | 0.000971 µM | C[C@]1(c2cc(NC(=O)c3ccc(Cl)cn3)ccc2F)N=C(N)S[C@@]2(C(=O)NC3CC3)C[C@H]21 [Example 792, (1S,5S,6S)-3-amino-5-(5-(((5-chloro-2-pyridinyl)carbonyl)amino)-2-fluorophenyl)-N-cyclopropyl-5-methyl-2-thia-4-azabicyclo[4.1.0]hept-3-en-1-carboxamide]
0.00452 µM | 147 µM | < 0.00203 µM | 0.0211 µM | CC(C)(C)NC(=O)[C@]12C[C@H]1[C@@](C)(c1cc(NC(=O)c3ccc(Cl)cn3)ccc1F)N=C(N)S2 [Example 797, (1S,5S,6S)-3-amino-N-tert-butyl-5-(5-(((5-chloro-2-pyridinyl)carbonyl)amino)-2-fluorophenyl)-5-methyl-2-thia-4-azabicyclo[4.1.0]hept-3-ene-1-carboxamide]
0.000294 µM | 4.72 µM | 0.0272 µM | 0.000715 µM | C#CCOc1cnc(C(=O)Nc2ccc(F)c([C@@]3(C)N=C(N)S[C@@]4(C(=O)NC(C)(C)C)C[C@H]43)c2)cn1 [Example 798, (1S,5S,6S)-3-amino-N-tert-butyl-5-(2-fluoro-5-(((5-(2-propyn-1-yloxy)-2-pyrazinyl)carbonyl)amino)phenyl)-5-methyl-2-thia-4-azabicyclo[4.1.0]hept-3-ene-1-carboxamide]
0.000382 µM | 349 µM | 0.015 µM | 0.00075 µM | C[C@]1(c2cc(NC(=O)c3cnc(OCc4ncco4)cn3)ccc2F)N=C(N)S[C@@]2(C(=O)NC3CC3)C[C@H]21 [Example 799, (1S,5S,6S)-3-amino-N-cyclopropyl-5-(2-fluoro-5-(((5-(1,3-oxazol-2-ylmethoxy)-2-pyrazinyl)carbonyl)amino)phenyl)-5-methyl-2-thia-4-azabicyclo[4.1.0]hept-3-ene-1-carboxamide]

Further lines, the compound ahead of its results:

SMILES | IC50 (human recombinant BACE1) | IC50 (Recombinant Cat D) | IC50 (human recombinant BACE2) | IC50 [1]
C#CCOc1cnc2c(Nc3ccc(F)c([C@@]4(CF)N=C(N)S[C@@]5(c6cnco6)C[C@@H]45)c3)nccc2n1 [Example 781, N-(3-((1S,5S,6S)-3-amino-5-(fluoromethyl)-1-(1,3-oxazol-5-yl)-2-thia-4-azabicyclo[4.1.0]hept-3-en-5-yl)-4-fluorophenyl)-2-(2-propyn-1-yloxy)pyrido[3,4-b]pyrazin-5-amine] | 0.000422 µM | 397 µM | 0.00329 µM | 0.00577 µM
C#CCOc1cnc2c(Nc3ccc(F)c([C@@]4(CF)N=C(N)S[C@@]5(c6cnco6)C[C@@H]45)c3)ncnc2c1 [Example 782, N-(3-((1S,5S,6S)-3-amino-5-(fluoromethyl)-1-(1,3-oxazol-5-yl)-2-thia-4-azabicyclo[4.1.0]hept-3-en-5-yl)-4-fluorophenyl)-7-(2-propyn-1-yloxy)pyrido[3,2-d]pyrimidin-4-amine] | 0.000577 µM | 792 µM | 0.0245 µM | 0.0197 µM
C#CCOc1cnc(C(=O)Nc2ccc(F)c([C@@]3(CF)N=C(N)S[C@@]4(c5ocnc5C)C[C@@H]34)c2)cn1 [Example 784, N-(3-((1S,5S,6S)-3-amino-5-(fluoromethyl)-1-(4-methyloxazol-5-yl)-2-thia-4-azabicyclo[4.1.0]hept-3-en-5-yl)-4-fluorophenyl)-5-(prop-2-yn-1-yloxy)pyrazine-2-carboxamide] | 0.000318 µM | 166 µM | < 0.00203 µM | 0.00152 µM
NC1=N[C@](CF)(c2cc(NC(=O)c3ccc(Cl)cn3)ccc2F)[C@@H]2C[C@]2(c2cnco2)S1 [Example 785, N-(3-((1S,5S,6S)-3-amino-5-(fluoromethyl)-1-(1,3-oxazol-5-yl)-2-thia-4-azabicyclo[4.1.0]hept-3-en-5-yl)-4-fluorophenyl)-5-chloro-2-pyridinecarboxamide] | 0.00112 µM | 621 µM | < 0.00203 µM | 0.0102 µM
NC1=N[C@](CF)(c2cc(NC(=O)c3ccc(Cl)cn3)ccc2F)[C@@H]2C[C@]2(c2ccon2)S1 [Example 786, N-(3-((1S,5S,6S)-3-amino-5-(fluoromethyl)-1-(isoxazol-3-yl)-2-thia-4-azabicyclo[4.1.0]hept-3-en-5-yl)-4-fluorophenyl)-5-chloropicolinamide] | 0.000976 µM | 584 µM | < 0.00203 µM | 0.0464 µM
C#CCOc1cnc2c(Nc3ccc(F)c([C@@]4(CF)N=C(N)S[C@@]5(c6ocnc6C)C[C@@H]45)c3)ncnc2c1 [Example 788, N-(3-((1S,5S,6S)-3-amino-5-(fluoromethyl)-1-(4-methyl-1,3-oxazol-5-yl)-2-thia-4-azabicyclo[4.1.0]hept-3-en-5-yl)-4-fluorophenyl)-7-(2-propyn-1-yloxy)pyrido[3,2-d]pyrimidin-4-amine] | 0.00127 µM | 485 µM | 0.0122 µM | 0.0161 µM
C#CCOc1ccc(C(=O)Nc2ccc(F)c([C@@]3(CF)N=C(N)S[C@@]4(c5ccon5)C[C@@H]34)c2)nc1 [Example 793, N-(3-((1S,5S,6S)-3-amino-5-(fluoromethyl)-1-(3-isoxazolyl)-2-thia-4-azabicyclo[4.1.0]hept-3-en-5-yl)-4-fluorophenyl)-5-(2-propyn-1-yloxy)-2-pyridinecarboxamide] | 0.000293 µM | 482 µM | 0.00477 µM | 0.0153 µM
C#CCOc1cnc2c(Nc3ccc(F)c([C@@]4(C)N=C(N)S[C@@]5(C(=O)NC6CC6)C[C@H]54)c3)nccc2n1 [Example 794, (1S,5S,6S)-3-amino-N-cyclopropyl-5-(2-fluoro-5-((2-(2-propyn-1-yloxy)pyrido[3,4-b]pyrazin-5-yl)amino)phenyl)-5-methyl-2-thia-4-azabicyclo[4.1.0]hept-3-ene-1-carboxamide] | 0.000846 µM | 316 µM | 0.0397 µM | 0.0012 µM
C[C@]1(c2cc(Nc3nccc4nc(OCc5ncco5)cnc34)ccc2F)N=C(N)S[C@@]2(C(=O)NC3CC3)C[C@H]21 [Example 796, (1S,5S,6S)-3-amino-N-cyclopropyl-5-(2-fluoro-5-((2-(1,3-oxazol-2-ylmethoxy)pyrido[3,4-b]pyrazin-5-yl)amino)phenyl)-5-methyl-2-thia-4-azabicyclo[4.1.0]hept-3-ene-1-carboxamide] | 0.000859 µM | 543 µM | 0.0628 µM | 0.00354 µM
